These results are taken from patent US20250346593A1, “IMIDAZO(1,2-1)PYRIDINE DERIVATIVES AS RIPK2 INHIBITORS” (Interline Therapeutics, Inc., priority 2022, published 2025).

SMILES strings stand for the structures. Like-named read-outs stand apart in the source and are kept apart here.

Assay [1] has as its system NF-κB pathway (SEAP) in THP1-Dual cells. Kind of assay: THP-1 Dual cell SEAP assay (L18-MDP stimulated). Type of assay: cell-based. The settings on record: read-out: NFkB THP1 IC50.
In assay [2] the target is GST-RIPK2 fusion protein (human RIPK2 amino acids 1-310) (Homo sapiens (Human), UniProt O43353). In words: RIPK2 binding competition assay (TR-FRET, Tracer 199). Background: Time-resolved FRET reads energy transfer from a long-lived donor to a nearby acceptor.
Where [3] appears, read: read-out: RIPK2 IC50, RIPK2 binding competition assay.

Sequence of GST-RIPK2 fusion protein (human RIPK2 amino acids 1-310) (O43353 1-310): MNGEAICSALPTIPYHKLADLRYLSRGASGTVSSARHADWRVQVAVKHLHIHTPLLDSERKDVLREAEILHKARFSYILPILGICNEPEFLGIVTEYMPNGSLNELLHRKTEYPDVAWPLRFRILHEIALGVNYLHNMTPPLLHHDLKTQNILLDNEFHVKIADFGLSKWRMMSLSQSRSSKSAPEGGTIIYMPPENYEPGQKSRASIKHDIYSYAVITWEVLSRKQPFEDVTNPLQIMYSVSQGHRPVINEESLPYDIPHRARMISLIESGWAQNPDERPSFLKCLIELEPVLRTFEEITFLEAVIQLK

A word on the IC50: it is the concentration needed to halve the response being measured. For `COc1cc2ncc(-c3cc(N)nc(C(F)(F)F)c3)n2cc1S(=O)(=O)C(C)(C)C` [Example 6, 4-(6-(tert-butylsulfonyl)-7-methoxyimidazo[1,2-a]pyridin-3-yl)-6-(trifluoromethyl) pyridin-2-amine], the concentration for half-maximal inhibition (IC50) was > 1 µM in assay [1] (Homo sapiens, THP1-Dual) and 0.0025 to 0.02 µM in assay [2].
Take `COc1cc2ncc(-c3ccc(O)nc3)n2cc1S(=O)(=O)C(C)(C)C` [Example 150, 5-(6-(tert-butylsulfonyl)-7-methoxyimidazo[1,2-a]pyridin-3-yl)pyridin-2-ol]: the IC50 in assay [1] (Homo sapiens, THP1-Dual) is > 1 µM; in assay [2] (setting [3]) it was > 0.02 µM.
Regarding `CCCS(=O)(=O)N(C)c1cc(-c2cnc3cc(OC)c(S(=O)(=O)C(C)(C)C)cn23)cc(OC)c1C` [Example 325, N-(5-(6-(tert-butylsulfonyl)-7-methoxyimidazo[1,2-a]pyridin-3-yl)-3-methoxy-2-methylphenyl)-N-methylpropane-1-sulfonamide], the IC50 is > 1 µM in assay [1] (Homo sapiens, THP1-Dual) and > 0.02 µM in assay [2] (setting [3]).
Consider `CCCS(=O)(=O)Nc1cc(-c2cnc3cc(OC)c(S(=O)(=O)C(C)(C)C)cn23)cc(OC)c1OC` [Example 10, N-(5-(6-(tert-butylsulfonyl)-7-methoxyimidazo[1,2-a]pyridin-3-yl)-2,3-dimethoxyphenyl) propane-1-sulfonamide], for which the IC50 is < 0.05 µM in assay [1] (Homo sapiens, THP1-Dual) and < 0.001 µM in assay [2] (setting [3]).
Taken in the same sequence, the figures for `COc1cc2ncc(-c3cc(F)c(N)nc3F)n2cc1C1(F)CCN(C)CC1` [Example 122, 3,6-difluoro-5-[5-(4-fluoro-1-methyl-4-piperidyl)-6-methoxy-1,3a-diaza-3-indenyl]-2-pyridylamine] were > 1 µM and > 0.02 µM.
For the compound `COc1cc2ncc(-c3cc(C#N)c(OC)c(NS(C)(=O)=O)c3)n2cc1S(=O)(=O)C(C)(C)C` [Example 260, N-(5-(6-(tert-butylsulfonyl)-7-methoxyimidazo[1,2-a]pyridin-3-yl)-3-cyano-2-methoxyphenyl)methane-sulfonamide], the IC50 in assay [1] (Homo sapiens, THP1-Dual) was > 1 µM; in assay [2] it was 0.0025 to 0.02 µM.
In the case of `CCCS(=O)(=O)Nc1cc(-c2cnn3ccc(S(=O)(=O)C(C)(C)C)cc23)ccc1OC` [Example 281, N-(5-(5-(tert-butylsulfonyl)pyrazolo[1,5-a]pyridin-3-yl)-2-methoxyphenyl)propane-1-sulfonamide], the IC50 in assay [1] (Homo sapiens, THP1-Dual) was in the range of 0.25 to 1 µM; in assay [2] it was 0.0025 to 0.02 µM.
For the compound `CCCS(=O)(=O)Nc1cc(COC)cc(-c2cnc3cc(OC)c(S(=O)(=O)C(C)(C)C)cn23)c1` [Example 289, N-(3-(6-(tert-butylsulfonyl)-7-methoxyimidazo[1,2-a]pyridin-3-yl)-5-(methoxymethyl)phenyl) propane-1-sulfonamide], the IC50 in assay [1] (Homo sapiens, THP1-Dual) lay within 0.25 to 1 µM; in assay [2], 0.0025 to 0.02 µM.
For the compound `COc1cc2ncc(-c3cc(F)c(N)cc3F)n2cc1S(=O)(=O)C(C)(C)C` [Example 81, 4-(6-(tert-butylsulfonyl)-7-methoxyimidazo[1,2-a]pyridin-3-yl)-2,5-difluoroaniline], the IC50 in assay [1] (Homo sapiens, THP1-Dual) was in the range of 0.25 to 1 µM; in assay [2] it was 0.0025 to 0.02 µM.
With `COc1cc2ncc(-c3cc(F)nc(NC[C@H](O)CO)c3)n2cc1S(=O)(=O)C(C)(C)C` [Example 203, (S)-3-((4-(6-(tert-butylsulfonyl)-7-methoxyimidazo[1,2-a]pyridin-3-yl)-6-fluoropyridin-2-yl)amino)propane-1,2-diol], the IC50 was 0.05 to 0.25 µM in assay [1] (Homo sapiens, THP1-Dual) and 0.001 to 0.0025 µM in assay [2].
On to `COc1cc2ncc(-c3cc(F)nc(F)c3)n2cc1S(=N)(=O)C(C)(C)C` (stereo not shown) [Example 315, tert-butyl(3-(2,6-difluoropyridin-4-yl)-7-methoxyimidazo[1,2-a]pyridin-6-yl)(imino)-λ^6-sulfanone], for which the IC50 in assay [1] (Homo sapiens, THP1-Dual) is > 1 µM; in assay [2] (setting [3]), > 0.02 µM.
For the compound `CCCS(=O)(=O)Nc1cc(-c2cnc3ccccn23)cc(F)c1OC` [Example 144, N-(3-fluoro-5-(imidazo[1,2-a]pyridin-3-yl)-2-methoxyphenyl) propane-1-sulfonamide], the IC50 in assay [1] (Homo sapiens, THP1-Dual) is > 1 µM; in assay [2] (setting [3]), > 0.02 µM.
As for `COc1cc2ncc(-c3cc(F)nc(NCC(C)(C)O)c3)n2cc1S(=O)(=O)C(C)(C)C` [Example 224, 1-({6-fluoro-4-[7-methoxy-6-(2-methylpropane-2-sulfonyl)imidazo[1,2-a]pyridin-3-yl]pyridin-2-yl}amino)-2-methylpropan-2-ol], the IC50 in assay [1] (Homo sapiens, THP1-Dual) was < 0.05 µM; in assay [2] it was 0.001 to 0.0025 µM.
Turning to `CCOc1c(N)cc(-c2cnc3cc(OC)c(S(=O)(=O)C(C)(C)C)cn23)cc1F` [Example 66, 5-(6-(tert-butylsulfonyl)-7-methoxyimidazo[1,2-a]pyridin-3-yl)-2-ethoxy-3-fluoroaniline], the IC50 is > 1 µM in assay [1] (Homo sapiens, THP1-Dual) and > 0.02 µM in assay [2] (setting [3]).
Consider `CCCS(=O)(=O)Nc1ccc(-c2cnc3cc(OC)c(S(=O)(=O)C(C)(C)C)cn23)cc1OC(F)F` [Example 293, N-(4-(6-(tert-butylsulfonyl)-7-methoxyimidazo[1,2-a]pyridin-3-yl)-2-(difluoromethoxy)phenyl) propane-1-sulfonamide], for which the IC50 in assay [1] (Homo sapiens, THP1-Dual) is > 1 µM; in assay [2] (setting [3]), > 0.02 µM.
Turning to `COc1cc2ncc(-c3cc(F)nc(NCC[C@H]4CNC(=O)C4)c3)n2cc1S(=O)(=O)C(C)(C)C` (single isomer, unassigned) [Example 240, (4R or S)-4-[2-({6-fluoro-4-[7-methoxy-6-(2-methylpropane-2-sulfonyl)imidazo[1,2-a]pyridin-3-yl]pyridin-2-yl}amino)ethyl] pyrrolidin-2-one], the IC50 in assay [1] (Homo sapiens, THP1-Dual) was < 0.05 µM; in assay [2], < 0.001 µM.
Take `COc1cc2ncc(-c3cc(C)c(OC)c(NCCCO)c3)n2cc1S(=O)(=O)C(C)(C)C` [Example 322, 3-((5-(6-(tert-butylsulfonyl)-7-methoxyimidazo[1,2-a]pyridin-3-yl)-2-methoxy-3-methylphenyl)amino)propan-1-ol]: the IC50 in assay [1] (Homo sapiens, THP1-Dual) was > 1 µM; in assay [2], 0.0025 to 0.02 µM.
Take `CCCS(=O)(=O)Nc1cc(-c2cnc3cc(OC)c(S(=O)(=O)C(C)(C)C)cn23)cnc1N` [Example 253, N-(2-amino-5-(6-(tert-butylsulfonyl)-7-methoxyimidazo[1,2-a]pyridin-3-yl)pyridin-3-yl)propane-1-sulfonamide]: the IC50 is > 1 µM in assay [1] (Homo sapiens, THP1-Dual) and > 0.02 µM in assay [2] (setting [3]).
For the compound `COc1cc2ncc(-c3cc(F)nc(NCCC(C)O)c3)n2cc1S(=O)(=O)C(C)(C)C` (single isomer, unassigned) [Example 170, 4-((4-(6-(tert-butylsulfonyl)-7-methoxyimidazo[1,2-a]pyridin-3-yl)-6-fluoropyridin-2-yl)amino)butan-2-ol], the IC50 in assay [1] was < 0.05 µM; in assay [2] (setting [3]) it was < 0.001 µM.
Regarding `CC(C)(C)S(=O)(=O)c1cn2c(-c3cc(F)c(N)nc3F)cnc2cc1OC(F)F` [Example 116, 5-(6-(tert-butylsulfonyl)-7-(difluoromethoxy)imidazo[1,2-a]pyridin-3-yl)-3,6-difluoropyridin-2-amine], the IC50 in assay [1] (Homo sapiens, THP1-Dual) is > 1 µM; in assay [2], 0.0025 to 0.02 µM.
Consider `CCCS(=O)(=O)Nc1cc(-c2cnc3cc(OC)c(S(=O)(=O)C(C)(C)C)cn23)cc(C)c1F` [Example 290, N-(5-(6-(tert-butylsulfonyl)-7-methoxyimidazo[1,2-a]pyridin-3-yl)-2-fluoro-3-methylphenyl)propane-1-sulfonamide], for which the IC50 in assay [1] (Homo sapiens, THP1-Dual) is > 1 µM; in assay [2], 0.0025 to 0.02 µM.
`COc1cc2ncc(-c3cc(F)nc(NC4CCOCC4)c3)n2cc1S(=O)(=O)C(C)(C)C` [Example 212, 4-(6-(tert-butylsulfonyl)-7-methoxyimidazo[1,2-a]pyridin-3-yl)-6-fluoro-N-(tetrahydro-2H-pyran-4-yl)pyridin-2-amine]: the IC50 in assay [1] (Homo sapiens, THP1-Dual) was > 1 µM; in assay [2] it was 0.0025 to 0.02 µM.
As to `COc1cc2ncc(-c3cc(F)nc(NCCCN)c3)n2cc1S(=O)(=O)C(C)(C)C` [Example 194, N1-(4-(6-(tert-butylsulfonyl)-7-methoxyimidazo[1,2-a]pyridin-3-yl)-6-fluoropyridin-2-yl)propane-1,3-diamine], the IC50 is < 0.05 µM in assay [1] (Homo sapiens, THP1-Dual) and < 0.001 µM in assay [2] (setting [3]).
For the compound `COc1cc2ncc(-c3cccc(CS(C)(=O)=O)c3)n2cc1S(=O)(=O)C(C)(C)C` [Example 156, 6-(tert-butylsulfonyl)-7-methoxy-3-(3-((methylsulfonyl)methyl)phenyl)imidazo[1,2-a]pyridine], the IC50 was > 1 µM in assay [1] (Homo sapiens, THP1-Dual) and > 0.02 µM in assay [2] (setting [3]).
In the case of `COc1cc2ncc(-c3cnc(N)c(C4CC4)c3)n2cc1S(=O)(=O)C(C)(C)C` [Example 84, 5-(6-(tert-butylsulfonyl)-7-methoxyimidazo[1,2-a]pyridin-3-yl)-3-cyclopropylpyridin-2-amine], the IC50 is > 1 µM in assay [1] (Homo sapiens, THP1-Dual) and > 0.02 µM in assay [2] (setting [3]).
As for `COc1cc2ncc(-c3cnc(N)c(C(F)F)c3)n2cc1S(=O)(=O)C(C)(C)C` [Example 98, 5-(6-(tert-butylsulfonyl)-7-methoxyimidazo[1,2-a]pyridin-3-yl)-3-(difluoromethyl)pyridin-2-amine], the 50% inhibitory concentration (IC50) in assay [1] (Homo sapiens, THP1-Dual) was > 1 µM; in assay [2] (setting [3]), > 0.02 µM.
For `COc1cc2ncc(-c3cc(C)c(OC)c(NCCCO)n3)n2cc1S(=O)(=O)C(C)(C)C` [Example 311, 3-((6-(6-(tert-butylsulfonyl)-7-methoxyimidazo[1,2-a]pyridin-3-yl)-3-methoxy-4-methylpyridin-2-yl)amino)propan-1-ol], the IC50 in assay [1] (Homo sapiens, THP1-Dual) lay within 0.25 to 1 µM; in assay [2], 0.0025 to 0.02 µM.
`CCCS(=O)(=O)Nc1cc(C#N)cc(-c2cnc3cc(OC)c(S(=O)(=O)C(C)(C)C)cn23)c1` [Example 282, N-(3-(6-(tert-butylsulfonyl)-7-methoxyimidazo[1,2-a]pyridin-3-yl)-5-cyanophenyl)propane-1-sulfonamide]: the IC50 in assay [1] (Homo sapiens, THP1-Dual) was > 1 µM; in assay [2], 0.0025 to 0.02 µM.
As to `COc1cc2ncc(-c3cc(F)nc(NCCCC(C)(C)O)c3)n2cc1S(=O)(=O)C(C)(C)C` [Example 182, 5-((4-(6-(tert-butylsulfonyl)-7-methoxyimidazo[1,2-a]pyridin-3-yl)-6-fluoropyridin-2-yl)amino)-2-methylpentan-2-ol], the IC50 is < 0.05 µM in assay [1] (Homo sapiens, THP1-Dual) and < 0.001 µM in assay [2] (setting [3]).
